According to patent publication US6875451B2, “Compositions and methods for the treatment of primary and metastatic neoplastic diseases using arsenic compounds” (PolaRx Biopharmaceuticals Inc., priority 1997, dated 2005):

How the values were obtained:
Format in all cases: cell-based
COLO 205 = test: SRB growth assay, 2 days exposure, colon cancer
Method: (§1) Arsenic trioxide (1 mg/ml, 10 mg/ampoule, manufactured by Taylor Pharmaceuticals, Decatur, Ill.) was tested at five concentrations each at 10-fold dilutions, i.e., 10^−5, 10^−6, 10^−7, 10^−8 and 10^−9 μg/ml.
(§2) The in vitro tests were performed by incubating the test cells in the presence of the indicated concentration of arsenic trioxide under standard culture conditions for a designated period of time, which is followed by a sulforhodamine B (SRB) protein assay to estimate cell viability or growth. The cell lines are organized into subpanels according to the origin of the cell lines, e.g., leukemia, breast cancer, etc. A description of the cell lines and method of testing is described in Monk et al. (1997, Anticancer Drug Des. 12:533-41) and Weinstein et al., (1997, Science 275:343-9), which are incorporated herein in their entirety.
(§3) The measurement of an effect is expressed in Percentage Growth (PG). The measured effect of the compound on a cell line is calculated according to one or the other of the following two expressions: If (Mean ODtest−Mean ODzero)≧0. then PG=100×(Mean ODtest−Mean ODzero)/(Mean ODctrl−Mean ODzero) If (Mean ODtest−Mean ODzero)<0. then PG=100×(Mean ODtest−Mean ODzero)/(Mean ODzero where: • Mean ODzero=the average of optical density measurements of SRB-derived color just before exposure of cells to the test compounds; • Mean ODtest=the average of optical density measurements of SRB-derived color after exposure of cells to the test compound for a designated period of time; and • Mean ODctrl=the average of optical density measurements of SRB-derived color after with no exposure of cells to the test compound for a designated period of time
(§4) The first two columns describe the subpanel (e.g., leukemia) and cell line (e.g., CCRF-CEM) involved. The next two columns list the Mean ODzero and Mean ODctrl; the next five columns list the Mean ODtest for each of five different concentrations. Each concentration is expressed as the log10 (molar or μg/ml). The next five columns list the calculated PGs for each concentration. The response parameters GI50, TGI and LC50 are interpolated values representing the concentrations at which the PG is +50, 0, and −50, respectively. Sometimes these response parameters cannot be obtained by interpolation. If, for instance, all of the PGs in a given row exceed +50, then none of the three parameters can be obtained by interpolation. In such a case, the value given for each response parameter is the highest concentration tested and is preceded by a “>” sign. This practice is extended similarly to the other possible situations where a response parameter cannot be obtained by interpolation.
(§5) In the first set, the cells from 56 different cancer cell lines were exposed to five concentrations of arsenic trioxide continuously for two days prior to performing the SRB assay. In the second set, the cells from 50 different cell lines (a subset of the first 56 cell lines, plus the renal cancer cell line 786-0) were exposed continuously for six days prior to the SRB assay.

HCT-116 = test: SRB growth assay, 2 days exposure, colon cancer
Method: as §1, §2, §3, §4, §5

HCT-15 = test: SRB growth assay, 2 days exposure, colon cancer
Method: as §1, §2, §3, §4, §5

HT29 = test: SRB growth assay, 2 days exposure, colon cancer
Method: as §1, §2, §3, §4, §5

KM12 = test: SRB growth assay, 2 days exposure, colon cancer
Method: as §1, §2, §3, §4, §5

SW-620 = test: SRB growth assay, 2 days exposure, colon cancer
Method: as §1, §2, §3, §4, §5

SF-295 = test: SRB growth assay, 2 days exposure, CNS cancer
Method: as §1, §2, §3, §4, §5

SNB-75 = test: SRB growth assay, 2 days exposure, CNS cancer
Method: as §1, §2, §3, §4, §5

A498 = test: SRB growth assay, 2 days exposure, renal cancer
Method: as §1, §2, §3, §4, §5

CAKI-1 = test: SRB growth assay, 2 days exposure, renal cancer
Method: as §1, §2, §3, §4, §5

RXE 393 = test: SRB growth assay, 2 days exposure, renal cancer
Method: as §1, §2, §3, §4, §5

SN12C = test: SRB growth assay, 2 days exposure, renal cancer
Method: as §1, §2, §3, §4, §5

TX-10 = test: SRB growth assay, 2 days exposure, renal cancer
Method: as §1, §2, §3, §4, §5

UO-31 = test: SRB growth assay, 2 days exposure, renal cancer
Method: as §1, §2, §3, §4, §5

Substance: arsenic trioxide
- TGI (COLO 205): >0.0126 ng/mL
- Percent Growth (COLO 205; log10 conc −4.9): 57%
- Percent Growth (COLO 205; log10 conc −5.9): 104%
- Percent Growth (COLO 205; log10 conc −6.9): 117%
- Percent Growth (COLO 205; log10 conc −7.9): 102%
- Percent Growth (COLO 205; log10 conc −8.9): 103%
- TGI (HCT-116): >0.0126 ng/mL
- Percent Growth (HCT-116; log10 conc −4.9): 30%
- Percent Growth (HCT-116; log10 conc −5.9): 86%
- Percent Growth (HCT-116; log10 conc −6.9): 93%
- Percent Growth (HCT-116; log10 conc −7.9): 93%
- Percent Growth (HCT-116; log10 conc −8.9): 95%
- TGI (HCT-15): >0.0126 ng/mL
- Percent Growth (HCT-15; log10 conc −4.9): 20%
- Percent Growth (HCT-15; log10 conc −5.9): 93%
- Percent Growth (HCT-15; log10 conc −6.9): 104%
- Percent Growth (HCT-15; log10 conc −7.9): 100%
- Percent Growth (HCT-15; log10 conc −8.9): 113%
- TGI (HT29): >0.0126 ng/mL
- Percent Growth (HT29; log10 conc −4.9): 15%
- Percent Growth (HT29; log10 conc −5.9): 80%
- Percent Growth (HT29; log10 conc −6.9): 100%
- Percent Growth (HT29; log10 conc −7.9): 104%
- Percent Growth (HT29; log10 conc −8.9): 112%
- TGI (KM12): >0.0126 ng/mL
- Percent Growth (KM12; log10 conc −4.9): 68%
- Percent Growth (KM12; log10 conc −5.9): 99%
- Percent Growth (KM12; log10 conc −6.9): 106%
- Percent Growth (KM12; log10 conc −7.9): 98%
- Percent Growth (KM12; log10 conc −8.9): 101%
- TGI (SW-620): >0.0126 ng/mL
- Percent Growth (SW-620; log10 conc −4.9): 16%
- Percent Growth (SW-620; log10 conc −5.9): 85%
- Percent Growth (SW-620; log10 conc −6.9): 96%
- Percent Growth (SW-620; log10 conc −7.9): 98%
- Percent Growth (SW-620; log10 conc −8.9): 102%
- TGI (SF-295): >0.0126 ng/mL
- Percent Growth (SF-295; log10 conc −4.9): 51%
- Percent Growth (SF-295; log10 conc −5.9): 91%
- Percent Growth (SF-295; log10 conc −6.9): 91%
- Percent Growth (SF-295; log10 conc −7.9): 96%
- Percent Growth (SF-295; log10 conc −8.9): 93%
- TGI (SNB-75): 0.00698 ng/mL
- Percent Growth (SNB-75; log10 conc −4.9): −17%
- Percent Growth (SNB-75; log10 conc −5.9): 37%
- Percent Growth (SNB-75; log10 conc −6.9): 115%
- Percent Growth (SNB-75; log10 conc −7.9): 100%
- Percent Growth (SNB-75; log10 conc −8.9): 77%
- TGI (A498): 0.00971 ng/mL
- Percent Growth (A498; log10 conc −4.9): −11%
- Percent Growth (A498; log10 conc −5.9): 84%
- Percent Growth (A498; log10 conc −6.9): 89%
- Percent Growth (A498; log10 conc −7.9): 93%
- Percent Growth (A498; log10 conc −8.9): 105%
- TGI (CAKI-1): 0.00913 ng/mL
- Percent Growth (CAKI-1; log10 conc −4.9): −13%
- Percent Growth (CAKI-1; log10 conc −5.9): 78%
- Percent Growth (CAKI-1; log10 conc −6.9): 128%
- Percent Growth (CAKI-1; log10 conc −7.9): 103%
- Percent Growth (CAKI-1; log10 conc −8.9): 120%
- TGI (RXE 393): >0.0126 ng/mL
- Percent Growth (RXE 393; log10 conc −4.9): 7%
- Percent Growth (RXE 393; log10 conc −5.9): 67%
- Percent Growth (RXE 393; log10 conc −6.9): 109%
- Percent Growth (RXE 393; log10 conc −7.9): 74%
- Percent Growth (RXE 393; log10 conc −8.9): 23%
- TGI (SN12C): 0.00696 ng/mL
- Percent Growth (SN12C; log10 conc −4.9): −28%
- Percent Growth (SN12C; log10 conc −5.9): 81%
- Percent Growth (SN12C; log10 conc −6.9): 88%
- Percent Growth (SN12C; log10 conc −7.9): 96%
- Percent Growth (SN12C; log10 conc −8.9): 97%
- TGI (TX-10): >0.0126 ng/mL
- Percent Growth (TX-10; log10 conc −4.9): 55%
- Percent Growth (TX-10; log10 conc −5.9): 96%
- Percent Growth (TX-10; log10 conc −6.9): 102%
- Percent Growth (TX-10; log10 conc −7.9): 96%
- Percent Growth (TX-10; log10 conc −8.9): 98%
- TGI (UO-31): >0.0126 ng/mL
- Percent Growth (UO-31; log10 conc −4.9): 42%
- Percent Growth (UO-31; log10 conc −5.9): 103%
- Percent Growth (UO-31; log10 conc −6.9): 110%
- Percent Growth (UO-31; log10 conc −7.9): 108%
- Percent Growth (UO-31; log10 conc −8.9): 105%
